US20230391727A1, “ANALOGUES OF PENTAMIDINE AND METHODS FOR TREATING INFECTIONS” (Auransa Inc., priority 2020, published 2023)
Like-named read-outs stand apart in the source and are kept apart here.

Legend:
Assay type in all cases: cell-based
[1] = tested on: Candida guilliermondii Cgui3; assay: Anti-fungal MIC assay; details: Meyerozyma guilliermondii
Method: (§1) The first round of testing included Candida parapsilosis, Candida krusei, Paecilomyces variotii, Candida albicans, Aspergillus fumigatus, and Blastomyces dermatitidis. […] The second round of testing included Candida parapsilosis, Candida krusei, Candida albicans, Candida auris, Candida glabrata, Candida guilliermondii, and Cryptococcus neoformans.
(§2) Stock solutions of the investigational agent were prepared at concentrations 100-times the highest concentration to be tested (6400 μg/ml) using dimethyl sulfoxide. Aliquots of the stock solutions were dispensed into polystyrene vials and stored at −20° C.
(§3) The synthetic medium RPMI-1640 (with glutamine, without bicarbonate, and with phenol red) was used. The RPMI was buffered to a pH of 7.0+0.1 at 25° C. with 0.165M MOPS (3-[N-morpholino] propanesulfonic acid). Sterile U-shaped 96-well cell culture plates were used to perform the MIC assays. Dilutions of the DMSO stocks were prepared in RPMI to achieve 2× concentrations. After the dilutions of the working 2× investigational antifungal solutions were prepared, 0.1 ml of each concentration was transferred into a pre-specified column of the U-shaped 96-well cell culture plate using sterile pipettes.
(§4) Fungal isolates were grown on Sabouraud dextrose agar (yeasts) or potato flake agar (filamentous fungi) and cells were collected after an appropriate period of growth for each species being evaluated (e.g., 48-72 hours for yeasts and 7 days for filamentous fungi). The fungi were suspended in sterile distilled water, and the densities of the fungal suspension were read using a spectrophotometer and adjusted to an appropriate optical density specific for each fungal species. The fungal suspension of each isolate was then diluted in RPMI. A sufficient volume of the test inoculum was prepared to directly inoculate 0.1 ml into each test well of the 96-well cell culture plate. Final inoculum ranges were dependent on the fungal species to be tested (e.g., 0.4×103 to 5×10^3 cells/ml for yeasts and dimorphic fungi, and 0.4×104 to 5×10^4 cells/ml for filamentous fungi). Each well of the 96-well cell culture plate containing the investigational antifungal compounds (0.1 ml volume) was inoculated on the day of the assay with 0.1 ml of the fungal suspension. Growth control wells contained 0.1 ml of fungal suspension and 0.1 ml of the growth medium without antifungal agents. The media control well contained 0.2 ml of the growth medium.
(§5) The microdilution trays were incubated at 35° C. without agitation. […] One positive comparator/control was used for yeast (fluconazole) and one was used for filamentous fungi (voriconazole).

[2] = tested on: Candida guilliermondii Cgui1; assay: Anti-fungal MIC assay; details: Meyerozyma guilliermondii
Method: as §1, §2, §3, §4, §5

Candida albicans 43001 = assay: Anti-fungal MIC assay
Method: as §1, §2, §3, §4, §5

Candida glabrata CG3 = assay: Anti-fungal MIC assay; details: Nakaseomyces glabratus
Method: as §1, §2, §3, §4, §5

Candida krusei ATCC6258 = assay: Anti-fungal MIC assay; details: Pichia kudriavzevii, second round (Table 6)
Method: as §1, §2, §3, §4, §5

[3] = tested on: Cryptococcus neoformans CN3; assay: Anti-fungal MIC assay
Method: as §1, §2, §3, §4, §5

[4] = tested on: Cryptococcus neoformans USC 1597; assay: Anti-fungal MIC assay
Method: as §1, §2, §3, §4, §5

[5] = tested on: Candida parapsilosis ATCC22019; assay: Anti-fungal MIC assay; details: Lodderomyces parapsilosis
Method: as §1, §2, §3, §4, §5

Candida albicans SC5314 = assay: Anti-fungal MIC assay
Method: as §1, §2, §3, §4, §5

[6] = tested on: Candida albicans ATCC90028; assay: Anti-fungal MIC assay
Method: as §1, §2, §3, §4, §5

Candida albicans CA3 = assay: Anti-fungal MIC assay
Method: as §1, §2, §3, §4, §5

Candida albicans CA6 = assay: Anti-fungal MIC assay
Method: as §1, §2, §3, §4, §5

Candida auris DI17-48 = assay: Anti-fungal MIC assay; details: Candidozyma auris
Method: as §1, §2, §3, §4, §5

[7] = tested on: Cryptococcus neoformans H99; assay: Anti-fungal MIC assay
Method: as §1, §2, §3, §4, §5

Candida parapsilosis CP1 = assay: Anti-fungal MIC assay
Method: as §1, §2, §3, §4, §5

Candida parapsilosis CP3 = assay: Anti-fungal MIC assay; details: Lodderomyces parapsilosis
Method: as §1, §2, §3, §4, §5

[8] = tested on: Paecilomyces variotii MYA-3630; assay: Anti-fungal MIC assay
Method: as §1, §2, §3, §4, §5

Candida glabrata 05-761 = assay: Anti-fungal MIC assay
Method: as §1, §2, §3, §4, §5

Candida auris DI17-46 = assay: Anti-fungal MIC assay; details: Candidozyma auris
Method: as §1, §2, §3, §4, §5

[9] = tested on: Candida guilliermondii Cgui2; assay: Anti-fungal MIC assay; details: Meyerozyma guilliermondii
Method: as §1, §2, §3, §4, §5

Candida glabrata 05-62 = assay: Anti-fungal MIC assay
Method: as §1, §2, §3, §4, §5

Candida auris DI17-47 = assay: Anti-fungal MIC assay; details: Candidozyma auris
Method: as §1, §2, §3, §4, §5

Candida parapsilosis CP2 = assay: Anti-fungal MIC assay; details: Lodderomyces parapsilosis
Method: as §1, §2, §3, §4, §5

Candida albicans CA5 = assay: Anti-fungal MIC assay
Method: as §1, §2, §3, §4, §5

[10] = tested on: Staphylococcus aureus ATCC 33591 (MRSA); assay: MIC assay against gram positive and antibiotic-resistant S. aureus; details: Staphylococcus aureus
Method: (§6) The MICs of vancomycin and linezolid were determined as quality controls and the MIC values of each strain met the acceptance criteria based on PDS historical reference data.
(§7) The direct colony suspension method was used to prepare inoculated broth. Isolated colonies were taken from an 18-24 h culture plate. Optical density measurements (OD620 nm) were used to estimate the bacterial density. The test article, compound 3, and reference control stock solutions were prepared in 100% DMSO as 50× stock solutions. The 50× stock solutions were diluted by 2-fold serial titrations with 100% DMSO for a total of 11 concentrations. A 4 μL aliquot of each dilution was added to 196 μL of cation-adjusted Mueller Hinton Broth II medium seeded with the organism in wells of a 96 well plate. The final vehicle concentration was two percent (2%) in all assay wells. The final bacterial count was 2 to 8×10^5 CFU/mL. The final compound 3 concentration range was 16 to 0.016 μg/mL. Each test substance dilution was evaluated in duplicate on one test occasion. Vehicle-control and reference controls were used as blank and positive controls, respectively. Plates were incubated at 35-37° C. for 18 h. The test plates were visually examined and each well was visually scored for growth or complete inhibition of growth. The MIC value was recorded.

[11] = tested on: Staphylococcus aureus VRS-2 (VRSA); assay: as above; details: Staphylococcus aureus, VRSA
Method: as §6, §7

[12] = tested on: Staphylococcus aureus ATCC 19636; assay: as above; details: Staphylococcus aureus, ATCC19636
Method: as §6, §7

[13] = tested on: Staphylococcus aureus BAA-1556 (MRSA); assay: as above; details: Staphylococcus aureus
Method: as §6, §7

[14] = read-out: MIC, 50% growth inhibition
[15] = read-out: MIC, 100% growth inhibition

Measured: MIC

OC(Cn1cncn1)(Cn1cncn1)c1ccc(F)cc1F [Fluconazole, reference compound]
16 µg/mL: Candida krusei ATCC6258; ATCC6258, C. krusei ATCC 6258, read-out: MIC, 50% growth inhibition | Candida auris DI17-48; DI1748, read-out: MIC, 100% growth inhibition | [7]; [14] | [8]; MYA3630, read-out: MIC, 50% growth inhibition
> 64 µg/mL: Candida albicans 43001; [14] | Candida albicans 43001; [15] | [3]; [14] | [3]; [15] | Candida albicans SC5314; [15] | [6]; [15] | Candida albicans CA3; [14] | Candida albicans CA3; [15] | Candida albicans CA6; [15] | Candida auris DI17-46; DI1746, read-out: MIC, 50% growth inhibition | Candida auris DI17-46; DI1746, read-out: MIC, 100% growth inhibition | Candida glabrata 05-62; Nakaseomyces glabratus, 0562, read-out: MIC, 50% growth inhibition | Candida glabrata 05-62; Nakaseomyces glabratus, 0562, read-out: MIC, 100% growth inhibition | Candida auris DI17-47; DI1747, read-out: MIC, 50% growth inhibition | Candida auris DI17-47; DI1747, read-out: MIC, 100% growth inhibition | Candida albicans CA5; [15]
0.25 µg/mL: Candida albicans SC5314; [14] | Candida albicans CA6; [14] | Candida albicans CA5; [14]
≤ 0.125 µg/mL: [6]; [14]
64 µg/mL: Candida glabrata CG3; [15]
0.5 µg/mL: Candida glabrata CG3; [14] | Candida parapsilosis CP1; [14] | Candida parapsilosis CP2; [14] | Candida parapsilosis CP2; [15]
1 µg/mL: [2]; [14] | [5]; ATCC22019, Candida parapsilosis ATCC22019, first round (Table 5), read-out: MIC, 50% growth inhibition | Candida parapsilosis CP1; [15] | Candida parapsilosis CP3; [14] | Candida parapsilosis CP3; [15]
2 µg/mL: [1]; [14] | [5]; ATCC22019, C. parapsilosis ATCC 22019, second round (Table 6), read-out: MIC, 50% growth inhibition | [5]; ATCC22019, read-out: MIC, 100% growth inhibition, C. parapsilosis ATCC 22019, second round (Table 6) | [5]; ATCC22019, read-out: MIC, 100% growth inhibition, Candida parapsilosis ATCC22019, first round (Table 5) | Candida auris DI17-48; DI1748, read-out: MIC, 50% growth inhibition | [9]; [14]
4 µg/mL: [1]; [15] | [2]; [15] | [4]; USC1597, read-out: MIC, 50% growth inhibition | [9]; [15]
8 µg/mL: [4]; USC1597, read-out: MIC, 100% growth inhibition | Candida glabrata 05-761; Nakaseomyces glabratus, 05761, read-out: MIC, 50% growth inhibition
32 µg/mL: Candida krusei ATCC6258; ATCC6258, read-out: MIC, 100% growth inhibition, C. krusei ATCC 6258 | [7]; [15] | [8]; MYA3630, read-out: MIC, 100% growth inhibition | Candida glabrata 05-761; Nakaseomyces glabratus, 05761, read-out: MIC, 100% growth inhibition

CN[C@H](CC(C)C)C(=O)N[C@H]1C(=O)N[C@@H](CC(N)=O)C(=O)N[C@H]2C(=O)N[C@H]3C(=O)N[C@H](C(=O)N[C@H](C(=O)O)c4cc(O)cc(O)c4-c4cc3ccc4O)[C@H](O)c3ccc(c(Cl)c3)Oc3cc2cc(c3O[C@@H]2O[C@H](CO)[C@@H](O)[C@H](O)[C@H]2O[C@H]2C[C@](C)(N)[C@H](O)[C@H](C)O2)Oc2ccc(cc2Cl)[C@H]1O [Vancomycin]
> 64 µg/mL: [11]
0.5 µg/mL: [10] | [12] | [13]
